What all share (format): binding
Assay [1] concerns the target T1, core-bradavidin (Bradyrhizobium diazoefficiens, UniProt Q89IH6).
T1 construct: gene blr5658; C-terminally truncated core form, 118 residues (truncation between Leu118 and Leu119), lacks Brad-tag; E. coli BL21-AI periplasm; homotetramer
Description: isothermal titration calorimetry. The source says: isothermal titration calorimetry on core-bradavidin

In assay [2] the target is T2, wt bradavidin (Bradyrhizobium diazoefficiens, UniProt Q89IH6).
T2 construct: gene blr5658; E. coli BL21-AI periplasm; homotetramer
T2 sequence (Q89IH6 26-163): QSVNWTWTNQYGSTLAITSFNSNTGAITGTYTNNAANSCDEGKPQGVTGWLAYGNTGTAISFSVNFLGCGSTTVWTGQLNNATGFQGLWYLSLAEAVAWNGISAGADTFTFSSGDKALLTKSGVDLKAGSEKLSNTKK
Nature of the assay: isothermal titration calorimetry. The source says:
isothermal titration calorimetry on wt bradavidin

Assay [3] concerns the target T1, core-bradavidin. Description: differential scanning calorimetry. The conditions noted are these: 50 mM sodium phosphate pH 7.0, 100 mM NaCl; 15 µM protein, ~3:1 biotin:subunit; 120 °C/hour. A general note: Differential scanning calorimetry records heat flow against a reference as temperature is scanned.
The target in assay [4] is T2, wt bradavidin. Nature of the assay: differential scanning calorimetry. The following applies: 50 mM sodium phosphate pH 7.0, 100 mM NaCl; 15 µM protein, ~3:1 biotin:subunit; 120 °C/hour.

Where only a bound is given, the exact number is not on record here.

For orientation: Kd means the equilibrium constant for the complex coming apart. Higher therefore signals a looser complex. With `O=C(O)CCCC[C@@H]1SC[C@@H]2NC(=O)N[C@@H]21` [D-biotin], the dissociation constant (Kd) on core-bradavidin [1] was under 1 nM; at wt bradavidin [2], 300 nM. The figures for the Tm with biotin on core-bradavidin [3] and at wt bradavidin [4] were 97.9±0.2 °C and 101.7±0.1 °C, respectively.

The record behind these values is publication PMC3344845, “Structure of Bradavidin – C-Terminal Residues Act as Intrinsic Ligands” (PLoS ONE, 2012).
